Assay results reported in paper PMC6462224 (Nature chemical biology, 2018).

Target: T1, M2R(S110R)_delta_ICL3 (Homo sapiens, UniProt P08172, DEL233-359/S110R)
T1 sequence (P08172 with tags, fused parts or gaps S110R/DEL233-359): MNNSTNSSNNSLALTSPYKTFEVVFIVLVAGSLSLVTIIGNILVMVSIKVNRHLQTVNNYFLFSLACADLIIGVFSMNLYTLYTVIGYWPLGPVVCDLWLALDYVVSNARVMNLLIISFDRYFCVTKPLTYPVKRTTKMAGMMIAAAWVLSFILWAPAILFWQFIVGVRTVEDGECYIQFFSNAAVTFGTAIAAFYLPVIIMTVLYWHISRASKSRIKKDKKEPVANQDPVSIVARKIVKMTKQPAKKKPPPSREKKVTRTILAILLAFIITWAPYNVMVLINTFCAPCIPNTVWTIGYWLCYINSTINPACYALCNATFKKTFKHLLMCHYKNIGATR
Experiment: Inhibition of [3H]NMS binding to M2R
Settings: S110R vs wild type, Fig. 2e

## C[N+](C)(C)CC#CCOC1=NOCC1 [Iperoxo]
  reduction of affinity in S110R mutant relative to the wild type: ~1000 fold
